The source of these data is ChEMBL document CHEMBL1687904, “Pestaloquinols A and B, isoprenylated epoxyquinols from Pestalotiopsis sp” (J Nat Prod, 2011).

In general, IC50 refers to the concentration at which inhibition is half-maximal.

For this test, the system named is HeLa. As to the kind of experiment: Cytotoxicity against human HeLa cells after 48 hrs by MTT assay. The test is classed as functional, cell-based.

For `CCCCC[C@@H]1OC=C2[C@@H]3OC(C)(C)[C@@H](O)C[C@@]34O[C@H]4C(=O)[C@]23[C@H]1[C@H]1C2=C([C@H]4OC(C)(C)[C@@H](O)C[C@@]45O[C@H]5C2=O)[C@@H]3O[C@@H]1CCCCC` [PESTALOQUINOL A], the IC50 was found to be 1.63 µM. The figure for `CCCCC[C@@H]1O[C@@H]2C3=C(C(=O)[C@@H]4O[C@@]45C[C@H](O)C(C)(C)O[C@H]35)[C@H]1[C@H]1[C@H](CCCCC)OC=C3[C@@H]4OC(C)(C)[C@@H](O)C[C@@]45O[C@H]5C(=O)[C@@]312` [PESTALOQUINOL B] is 0.88 µM.
